# Measured values from paper PMC3741113, “De-Novo Design of Antimicrobial Peptides for Plant Protection” (PLoS ONE, 2013).
# Ends that are not written are not given here.
# System: Clavibacter michiganensis ssp. michiganensis
# Conditions: Table 4, incubation period 2d; LB-medium, 27°C
row,Substance,MIC
1,KRKKLLKRLL-NH2 [SP1-15],5.0 µg/mL
2,RKKKLKVVKRLV-NH2 [SP1-6],10 µg/mL
3,RKKRKKLIKRLI-NH2 [SP1-19],5.0 µg/mL
4,RKKKIKIIKKII-NH2 [SP1-9],2.5 µg/mL
5,RKKKFKFFKRFF-NH2 [SP1-13],0.25 µg/mL
6,LRFARRALRRLF-NH2 [SP10-9],1.0 µg/mL
7,KRRLALFRLFRLALKLVLKK-NH2 [SP13-11],2.5 µg/mL
8,RKKKFKFFKRLF-NH2 [SP1-12],0.5 µg/mL
9,LRFAKKALKKLF-NH2 [SP10-3],2.5 µg/mL
10,KRRKLIKILKLIIKLIRKKR-NH2 [SP13-6],0.1 µg/mL
11,RKKKAKIIKKII-NH2 [SP1-10],>10 µg/mL
12,KRRKLIKILKLIAKLIRKKR-NH2 [SP13-7],0.25 µg/mL
13,KKKKIIKRLI-NH2 [SP1-17],>10 µg/mL
14,LRKAKKIAKKLF-NH2 [SP10-11],5.0 µg/mL
15,RKKKKKIIKKLI-NH2 [SP1-21],>10 µg/mL
16,RKKKIKIIKRLI-NH2 [SP1-8],5.0 µg/mL
17,KRRLIFRILKLFFRFLVKKR-NH2 [SP13-4],1.0 µg/mL
18,LRFIKKILKKLI-NH2 [SP10-4],0.25 µg/mL
19,RKKKLKFFKRLF-NH2 [SP1-11],2.5 µg/mL
20,KRRKAIKILKLIAKAIRKKR-NH2 [SP13-9],0.25 µg/mL
21,KRRKLAFRAFRFALKAVLKK-NH2 [SP13-13],0.5 µg/mL

# System: Pectobacterium carotovorum ssp. carotovorum
# Conditions: Table 4, incubation period 1d; LB-medium, 27°C
row,Substance,MIC
1,KRKKLLKRLL-NH2 [SP1-15],>10 µg/mL
2,RKKKLKVVKRLV-NH2 [SP1-6],>10 µg/mL
3,RKKRKKLIKRLI-NH2 [SP1-19],>10 µg/mL
4,RKKKIKIIKKII-NH2 [SP1-9],>10 µg/mL
5,RKKKFKFFKRFF-NH2 [SP1-13],>10 µg/mL
6,LRFARRALRRLF-NH2 [SP10-9],2.5 µg/mL
7,KRRLALFRLFRLALKLVLKK-NH2 [SP13-11],>10 µg/mL
8,RKKKFKFFKRLF-NH2 [SP1-12],>10 µg/mL
9,LRFAKKALKKLF-NH2 [SP10-3],>10 µg/mL
10,KRRKLIKILKLIIKLIRKKR-NH2 [SP13-6],>10 µg/mL
11,RKKKAKIIKKII-NH2 [SP1-10],>10 µg/mL
12,KRRKLIKILKLIAKLIRKKR-NH2 [SP13-7],>10 µg/mL
13,KKKKIIKRLI-NH2 [SP1-17],>10 µg/mL
14,LRKAKKIAKKLF-NH2 [SP10-11],>10 µg/mL
15,RKKKKKIIKKLI-NH2 [SP1-21],>10 µg/mL
16,RKKKIKIIKRLI-NH2 [SP1-8],>10 µg/mL
17,KRRLIFRILKLFFRFLVKKR-NH2 [SP13-4],>10 µg/mL
18,LRFIKKILKKLI-NH2 [SP10-4],2.5 µg/mL
19,RKKKLKFFKRLF-NH2 [SP1-11],>10 µg/mL
20,KRRKAIKILKLIAKAIRKKR-NH2 [SP13-9],>10 µg/mL
21,KRRKLAFRAFRFALKAVLKK-NH2 [SP13-13],>10 µg/mL

# System: Xanthomonas vesicatoria
# Conditions: Table 4, incubation period 2d; LB-medium, 27°C
row,Substance,MIC
1,KRKKLLKRLL-NH2 [SP1-15],5.0 µg/mL
2,RKKKLKVVKRLV-NH2 [SP1-6],>10 µg/mL
3,RKKRKKLIKRLI-NH2 [SP1-19],5.0 µg/mL
4,RKKKIKIIKKII-NH2 [SP1-9],2.5 µg/mL
5,RKKKFKFFKRFF-NH2 [SP1-13],0.5 µg/mL
6,LRFARRALRRLF-NH2 [SP10-9],1.0 µg/mL
7,KRRLALFRLFRLALKLVLKK-NH2 [SP13-11],2.5 µg/mL
8,RKKKFKFFKRLF-NH2 [SP1-12],0.5 µg/mL
9,LRFAKKALKKLF-NH2 [SP10-3],2.5 µg/mL
10,KRRKLIKILKLIIKLIRKKR-NH2 [SP13-6],0.1 µg/mL
11,RKKKAKIIKKII-NH2 [SP1-10],>10 µg/mL
12,KRRKLIKILKLIAKLIRKKR-NH2 [SP13-7],0.1 µg/mL
13,KKKKIIKRLI-NH2 [SP1-17],>10 µg/mL
14,LRKAKKIAKKLF-NH2 [SP10-11],0.5 µg/mL
15,RKKKKKIIKKLI-NH2 [SP1-21],>10 µg/mL
16,RKKKIKIIKRLI-NH2 [SP1-8],2.5 µg/mL
17,KRRLIFRILKLFFRFLVKKR-NH2 [SP13-4],2.5 µg/mL
18,LRFIKKILKKLI-NH2 [SP10-4],0.1 µg/mL
19,RKKKLKFFKRLF-NH2 [SP1-11],2.5 µg/mL
20,KRRKAIKILKLIAKAIRKKR-NH2 [SP13-9],0.1 µg/mL
21,KRRKLAFRAFRFALKAVLKK-NH2 [SP13-13],0.25 µg/mL

# System: Pseudomonas syringae pv. tomato
# Conditions: Table 4, incubation period 1d; LB-medium, 27°C
row,Substance,MIC
1,KRKKLLKRLL-NH2 [SP1-15],1.0 µg/mL
2,RKKKLKVVKRLV-NH2 [SP1-6],1.0 µg/mL
3,RKKRKKLIKRLI-NH2 [SP1-19],>10 µg/mL
4,RKKKIKIIKKII-NH2 [SP1-9],5.0 µg/mL
5,RKKKFKFFKRFF-NH2 [SP1-13],2.5 µg/mL
6,LRFARRALRRLF-NH2 [SP10-9],0.25 µg/mL
7,KRRLALFRLFRLALKLVLKK-NH2 [SP13-11],2.5 µg/mL
8,RKKKFKFFKRLF-NH2 [SP1-12],>10 µg/mL
9,LRFAKKALKKLF-NH2 [SP10-3],0.25 µg/mL
10,KRRKLIKILKLIIKLIRKKR-NH2 [SP13-6],2.5 µg/mL
11,RKKKAKIIKKII-NH2 [SP1-10],>10 µg/mL
12,KRRKLIKILKLIAKLIRKKR-NH2 [SP13-7],10 µg/mL
13,KKKKIIKRLI-NH2 [SP1-17],1.0 µg/mL
14,LRKAKKIAKKLF-NH2 [SP10-11],0.5 µg/mL
15,RKKKKKIIKKLI-NH2 [SP1-21],2.5 µg/mL
16,KRRLIFRILKLFFRFLVKKR-NH2 [SP13-4],>10 µg/mL
17,LRFIKKILKKLI-NH2 [SP10-4],1.0 µg/mL
18,RKKKLKFFKRLF-NH2 [SP1-11],>10 µg/mL
19,KRRKAIKILKLIAKAIRKKR-NH2 [SP13-9],>10 µg/mL
20,KRRKLAFRAFRFALKAVLKK-NH2 [SP13-13],2.5 µg/mL

# System: Pseudomonas syringae pv. syringae
# Conditions: Table 4, incubation period 1d; LB-medium, 27°C
row,Substance,MIC
1,KRKKLLKRLL-NH2 [SP1-15],0.1 µg/mL
2,RKKKLKVVKRLV-NH2 [SP1-6],5.0 µg/mL
3,RKKRKKLIKRLI-NH2 [SP1-19],<0.1 µg/mL
4,RKKKIKIIKKII-NH2 [SP1-9],0.5 µg/mL
5,RKKKFKFFKRFF-NH2 [SP1-13],0.1 µg/mL
6,LRFARRALRRLF-NH2 [SP10-9],0.25 µg/mL
7,KRRLALFRLFRLALKLVLKK-NH2 [SP13-11],>10 µg/mL
8,RKKKFKFFKRLF-NH2 [SP1-12],0.1 µg/mL
9,LRFAKKALKKLF-NH2 [SP10-3],0.25 µg/mL
10,KRRKLIKILKLIIKLIRKKR-NH2 [SP13-6],1.0 µg/mL
11,RKKKAKIIKKII-NH2 [SP1-10],1.0 µg/mL
12,KRRKLIKILKLIAKLIRKKR-NH2 [SP13-7],>10 µg/mL
13,KKKKIIKRLI-NH2 [SP1-17],<0.1 µg/mL
14,LRKAKKIAKKLF-NH2 [SP10-11],0.1 µg/mL
15,RKKKKKIIKKLI-NH2 [SP1-21],0.5 µg/mL
16,RKKKIKIIKRLI-NH2 [SP1-8],0.25 µg/mL
17,KRRLIFRILKLFFRFLVKKR-NH2 [SP13-4],10 µg/mL
18,LRFIKKILKKLI-NH2 [SP10-4],0.25 µg/mL
19,RKKKLKFFKRLF-NH2 [SP1-11],1.0 µg/mL
20,KRRKAIKILKLIAKAIRKKR-NH2 [SP13-9],>10 µg/mL
21,KRRKLAFRAFRFALKAVLKK-NH2 [SP13-13],0.5 µg/mL

# System: Pseudomonas corrugata
# Conditions: Table 4, incubation period 2d; LB-medium, 27°C
row,Substance,MIC
1,KRKKLLKRLL-NH2 [SP1-15],<0.1 µg/mL
2,RKKKLKVVKRLV-NH2 [SP1-6],>10 µg/mL
3,RKKRKKLIKRLI-NH2 [SP1-19],0.5 µg/mL
4,RKKKIKIIKKII-NH2 [SP1-9],5.0 µg/mL
5,RKKKFKFFKRFF-NH2 [SP1-13],<0.1 µg/mL
6,LRFARRALRRLF-NH2 [SP10-9],0.5 µg/mL
7,KRRLALFRLFRLALKLVLKK-NH2 [SP13-11],>10 µg/mL
8,RKKKFKFFKRLF-NH2 [SP1-12],0.25 µg/mL
9,LRFAKKALKKLF-NH2 [SP10-3],1.0 µg/mL
10,KRRKLIKILKLIIKLIRKKR-NH2 [SP13-6],2.5 µg/mL
11,RKKKAKIIKKII-NH2 [SP1-10],10 µg/mL
12,KRRKLIKILKLIAKLIRKKR-NH2 [SP13-7],0.5 µg/mL
13,KKKKIIKRLI-NH2 [SP1-17],5.0 µg/mL
14,LRKAKKIAKKLF-NH2 [SP10-11],0.5 µg/mL
15,RKKKKKIIKKLI-NH2 [SP1-21],2.5 µg/mL
16,RKKKIKIIKRLI-NH2 [SP1-8],2.5 µg/mL
17,KRRLIFRILKLFFRFLVKKR-NH2 [SP13-4],5.0 µg/mL
18,LRFIKKILKKLI-NH2 [SP10-4],2.5 µg/mL
19,RKKKLKFFKRLF-NH2 [SP1-11],0.25 µg/mL
20,KRRKAIKILKLIAKAIRKKR-NH2 [SP13-9],0.25 µg/mL
21,KRRKLAFRAFRFALKAVLKK-NH2 [SP13-13],0.25 µg/mL
